In patent publication US20150258220A1, “MAGNETIC RESONANCE IMAGING AND/OR SPECTROSCOPY CONTRAST AGENTS AND METHODS OF USE THEREOF” (Duke University, priority 2008, published 2015):

Tests used:
[1] = 13C NMR inversion recovery of diacetyl / monohydrate in water; type: physicochemical; settings: pH 7, water
Method: ^13C-labelled diacetyl was prepared from ^13C2 oxalate, which was reacted with N, N′-dimethylethylenediamine to afford 2,3-^13C2-1,4-dimethylpiperazine-2,3-dione in 97% yield. Two equivalents of methyl magnesium bromide were added to the piperazine dione to produce the dimethyl piperazine N,O-acetal. Crude acetal was hydrolyzed with 10% aqueous HCl to yield 2,3-^13C2-diacetyl, which was purified by fractional distillation. The carbonyl carbons in diacetyl are magnetically equivalent by symmetry, so at modest resolution (such as that commonly achieved in an imaging system), the spectrum is expected to have only a single line. Neat 2,3-^13C diacetyl does have a single line carbon-13 NMR spectrum, however the carbon spectrum in water has five lines. In water, the monohydrate (i.e., CH3—(^13C═O)(^13C(OH)2)CH3) with classic AX doublets (splitting JC-C=50 Hz) is the majority species. See Bell, Adv. Phys. Org. Chem., 4, 1 (1966); Bell and McDougall, Trans. Faraday Soc., 56, 1281-1285 (1960); and Greenzaid et al., J. Am. Chem. Soc., 89, 749 (1967). The dihydrate is undetectable. Equilibrium can be shifted back to diacetyl by changing solvent, and the rate of interconversion is pH dependent. At pH 7, inversion of the diacetyl alone causes recovery in 8 s, which gives the rate of dehydration. Inversion of all lines causes diacetyl to recover in 22 s.

[2] = DNP hyperpolarization (Oxford HYPERSENSE), single-shot 13C NMR in water; type: physicochemical; settings: hyperpolarized sample in water
Excerpt: FIG. 1 is a single-shot hyperpolarized ^13C nuclear magnetic resonance (NMR) spectrum of 2,3-^13C diacetyl in water. Hyperpolarized 2,3-^13C diacetyl was produced by a commercially available hyperpolarizer (Oxford HYPERSENSE™, Oxford Instruments Molecular Biotools Ltd., Tubney Woods, Abingdon, Oxfordshire, United Kingdom). The sample has about 20% nuclear polarization. The thermally polarized spectrum (not shown) is similar after many averages.
In some embodiments, the hyperpolarizing is performed by DNP. DNP refers to transferring spin polarization from electrons to nuclei. DNP can be performed by doping a material with a free radical. The unpaired electrons in the free radical can be polarized, for example, by exposure to a high magnetic field and low temperature. Irradiation at the electron paramagnetic resonance frequency can then serve to transfer polarization to the nuclei. By “hyperpolarization,” it is meant that the sample is polarized to a level over that found at room temperature and 1 Tesla, preferably polarized to a polarization degree in excess of 0.1%, more preferably 1%, even more preferably 10%.

[3] = butter; cited from earlier work

SMILES: CC(=O)C(C)=O [diacetyl]
- recovery time after inversion of the diacetyl alone (gives the rate of dehydration) [1]: 8 s
- recovery time of diacetyl after inversion of all lines [1]: 22 s
- nuclear polarization [2]: about 20%
- partitioning between phases [3]: mostly found in the fatty phase
